Test results: patent US20160257651A1, “NOVEL COMPOUND WITH ANTIBACTERIAL ACTIVITY” (priority 2013, published 2016)
Converted amounts (≈) assume the structure as drawn. Like-named read-outs stand apart in the source and are kept apart here.

Key:
[1] = tested on: S. aureus FDA209P (ATCC 6538P); experiment: microbe, parasite or virus in culture; assay type: cell-based, Staphylococcus aureus; settings: Staphylococcus aureus, ATCC 6538P / FDA209P / MSSA, quinolone-susceptible MSSA, ParC 80S, GyrA 84S, read-out: MIC
Method: (§1) Then, the cell suspension was diluted 500 times with CAMHB mentioned above.

S. aureus Mu50 = experiment: microbe, parasite or virus in culture; assay type: cell-based, Staphylococcus aureus; settings: for MIC ratio (Mu50 MIC/FDA209P MIC): MIC for S. aureus Mu50 / MIC for S. aureus FDA209P; for MIC: S. aureus Mu50, quinolone-resistant MRSA, ParC S80F, GyrA S84L
Method: as §1

[2] = tested on: S. aureus MS5952 one-step mutant; experiment: MIC against stepwise QRDR mutants; assay type: cell-based; settings: Staphylococcus aureus
Method: (§2) The strains used for this test example are available from the inventors of the present invention.
as §1

[3] = tested on: S. aureus MR5867 one-step mutant; experiment: MIC against stepwise QRDR mutants; assay type: cell-based; settings: Staphylococcus aureus
Method: as §2, §1

S. aureus MR5867 = experiment: MIC against stepwise QRDR mutants; assay type: cell-based; settings: Staphylococcus aureus
Source text: (§3) In order to further verify that the action site of the compound J-131CP is gyrA, there were examined antibacterial activities against the MRSA, S. aureus MR5867, and stepwise-mutated strains (one-step mutant strain to three-step mutant strain) of S. aureus MR5867 in which mutation was introduced into QRDR, as well as the MSSA, S. aureus MS5952, and stepwise-mutated strains (one-step mutant strain to three-step mutant strain) of S. aureus MS5952 in which mutation was introduced into QRDR (those strains mentioned above are described in Antimicrob. Agents Chemother., 42(8), pp. 1917-1922, 1998) by the following methods. The strains used for this test example are available from the inventors of the present invention.
(§4) The compound J-131CP and quinolones were prepared in the same manner as that of Test Example 1-1.
as §1
(§5) CAMHB containing each of the compound J-131CP and quinolones at each concentration was added to each well of a 96-well plate in a volume of 50 μL/well, the aforementioned cell suspension diluted 500 times was added to the well in a volume of 50 μL/well, and stationary culture was carried out overnight at 37° C. in the same manner as that of Test Example 1-1.

[4] = tested on: S. aureus MS5952 two-step mutant; experiment: MIC against stepwise QRDR mutants; assay type: cell-based; settings: Staphylococcus aureus
Source text: as §3, §4, §1, §5

[5] = tested on: S. aureus MR5867 three-step mutant; experiment: MIC against stepwise QRDR mutants; assay type: cell-based; settings: Staphylococcus aureus
Source text: as §3, §4, §1, §5

S. aureus MS5952 = experiment: MIC against stepwise QRDR mutants; assay type: cell-based; settings: Staphylococcus aureus
Source text: as §3, §4, §1, §5

[6] = tested on: S. aureus MR5867 two-step mutant; experiment: MIC against stepwise QRDR mutants; assay type: cell-based; settings: Staphylococcus aureus
Source text: as §3, §4, §1, §5

[7] = tested on: S. aureus MS5952 three-step mutant; experiment: MIC against stepwise QRDR mutants; assay type: cell-based; settings: Staphylococcus aureus
Source text: as §3, §4, §1, §5

S. aureus Mu50 NR1-1 = experiment: microbe, parasite or virus in culture; assay type: cell-based; settings: Staphylococcus aureus, MU50NR11
Method: as §1

E. faecalis 36-15747 = experiment: MIC against Enterococcus bacteria; assay type: cell-based; settings: 3615747, ParC 80Ile
Method: (§6) Antibacterial activities of the compound J-131CP against Enterococcus bacteria (Enterococcus faecium and Enterococcus faecalis) were examined by the following methods.
as §4
(§7) Cell suspensions were prepared in the same manner as that of Test Example 1-1 described in the section of measurement of MIC in Test Example 1-1, except that the Enterococcus bacterium strains mentioned in Table 8 were used instead of Staphylococcus aureus, and MICs of the compound J-131CP and quinolones as control were determined for the strains in the same manner as that of Test Example 1-1 described in the section of measurement of MIC in Test Example 1-1. In Table 8, the amino acid substitution mutations in QRDR of the strains are underlined.

E. faecalis NCTC12201 = experiment: MIC against Enterococcus bacteria; assay type: cell-based; settings: Enterococcus faecalis, NCTC 12201 / VRE, quinolone-susceptible, read-out: MIC
Method: as §6, §4, §7

E. faecium RPR2 = experiment: MIC against Enterococcus bacteria; assay type: cell-based, Enterococcus faecium; settings: Enterococcus faecium, RPR2
Method: as §6, §4, §7

E. faecium NCTC12202 = experiment: MIC against Enterococcus bacteria; assay type: cell-based, Enterococcus faecium; settings: Enterococcus faecium, NCTC 12202 / VRE; E. faecium NCTC12202, VRE, quinolone-susceptible; read-out: MIC
Method: as §6, §4, §7

[8] = tested on: Staphylococcus aureus MW2 (CA-MRSA); experiment: MIC, S. aureus categories (Test Example 3); assay type: cell-based; settings: Staphylococcus aureus; strain MW2, CA-MRSA; read-out: MIC
Method: (§8) The antibacterial activities of the compound J-131CP against Staphylococcus aureus strains belonging to the five categories of Staphylococcus aureus, i.e., MSSA, MRSA, community-acquired-infection type MRSA (CA-MRSA), VISA, and VRSA, were investigated.
as §4
(§9) Cell suspensions were prepared in the same manner as that of Test Example 1-1 described in the section of measurement of MIC in Test Example 1-1, except that the strains mentioned in Table 6 were used as Staphylococcus aureus, and MICs of the compound J-131CP and quinolones as the control were determined for the strains in the same manner as that of Test Example 1-1. In Table 6, the amino acid substitution mutations in QRDR of the strains are underlined.

[9] = tested on: Staphylococcus aureus BR2 (VISA); experiment: MIC, S. aureus categories (Test Example 3); assay type: cell-based
Method: as §8, §4, §9

[10] = tested on: Staphylococcus aureus VRS3a (VRSA); experiment: MIC, S. aureus categories (Test Example 3); assay type: cell-based
Method: as §8, §4, §9

[11] = tested on: Staphylococcus aureus VRS1 (VRSA); experiment: MIC, S. aureus categories (Test Example 3); assay type: cell-based
Method: as §8, §4, §9

[12] = tested on: Staphylococcus aureus USA300FPR (CA-MRSA); experiment: MIC, S. aureus categories (Test Example 3); assay type: cell-based
Method: as §8, §4, §9

[13] = tested on: Staphylococcus aureus ATCC29213 (MSSA); experiment: MIC, S. aureus categories (Test Example 3); assay type: cell-based; settings: strain ATCC29213, MSSA, read-out: MIC
Method: as §8, §4, §9

[14] = tested on: Staphylococcus aureus KSA36 (MRSA); experiment: MIC, S. aureus categories (Test Example 3); assay type: cell-based
Method: as §8, §4, §9

[15] = tested on: Staphylococcus aureus NCTC8325 (MSSA); experiment: MIC, S. aureus categories (Test Example 3); assay type: cell-based; settings: Staphylococcus aureus, strain NCTC8325, MSSA
Method: as §8, §4, §9

[16] = tested on: Staphylococcus aureus MI (VISA); experiment: MIC, S. aureus categories (Test Example 3); assay type: cell-based
Method: as §8, §4, §9

[17] = tested on: Staphylococcus aureus VRS5 (VRSA); experiment: MIC, S. aureus categories (Test Example 3); assay type: cell-based
Method: as §8, §4, §9

| Structure (SMILES) | MIC [1] | MIC ratio (Mu50 MIC/FDA209P MIC) (S. aureus Mu50) | MIC [2] | MIC [3] | MIC (S. aureus MR5867) | MIC [4] | MIC [5] | MIC (S. aureus MS5952) | MIC [6] | MIC [7] | MIC (S. aureus Mu50 NR1-1) | MIC (E. faecalis 36-15747) | MIC (E. faecalis NCTC12201) | MIC (E. faecium RPR2) | MIC (E. faecium NCTC12202) | MIC [8] | MIC [9] | MIC [10] | MIC [11] | MIC [12] | also measured |
| --- | --- | --- | --- | --- | --- | --- | --- | --- | --- | --- | --- | --- | --- | --- | --- | --- | --- | --- | --- | --- | --- |
| CCn1cc(C(=O)O)c(=O)c2cc(F)c(N3CCNCC3)cc21 [NOR, norfloxacin] | 0.25 µg/mL (≈ 0.783 µM) | 512 | 16 µg/mL (≈ 50.1 µM) | 16 µg/mL (≈ 50.1 µM) | 1 µg/mL (≈ 3.13 µM) | 16 µg/mL (≈ 50.1 µM) | > 128 µg/mL | 1 µg/mL (≈ 3.13 µM) | 64 µg/mL (≈ 200 µM) | 128 µg/mL (≈ 401 µM) | 16 µg/mL (≈ 50.1 µM) | 16 µg/mL (≈ 50.1 µM) | 2 µg/mL (≈ 6.26 µM) | > 128 µg/mL | 2 µg/mL (≈ 6.26 µM) | 0.5 µg/mL (≈ 1.57 µM) | 64 µg/mL (≈ 200 µM) | 128 µg/mL (≈ 401 µM) | > 128 µg/mL | 32 µg/mL (≈ 100 µM) | MIC [13]: 1 µg/mL (≈ 3.13 µM); MIC [14]: > 128 µg/mL; MIC ([15]; read-out: MIC): 1 µg/mL (≈ 3.13 µM); MIC [16]: 128 µg/mL (≈ 401 µM); MIC [17]: > 128 µg/mL |
| CC1COc2c(N3CCN(C)CC3)c(F)cc3c(=O)c(C(=O)O)cn1c23 (centres unmarked) [OFX, ofloxacin] | 0.125 µg/mL (≈ 0.346 µM) | 128 | 1 µg/mL (≈ 2.77 µM) | 1 µg/mL (≈ 2.77 µM) | 0.25 µg/mL (≈ 0.692 µM) | 8 µg/mL (≈ 22.1 µM) | 64 µg/mL (≈ 177 µM) | 0.25 µg/mL (≈ 0.692 µM) | 16 µg/mL (≈ 44.3 µM) | 64 µg/mL (≈ 177 µM) | 2 µg/mL (≈ 5.53 µM) | 4 µg/mL (≈ 11.1 µM) | 2 µg/mL (≈ 5.53 µM) | > 128 µg/mL | 1 µg/mL (≈ 2.77 µM) | 0.5 µg/mL (≈ 1.38 µM) | 64 µg/mL (≈ 177 µM) | 32 µg/mL (≈ 88.6 µM) | 32 µg/mL (≈ 88.6 µM) | 16 µg/mL (≈ 44.3 µM) | MIC (S. aureus Mu50): 16 µg/mL (≈ 44.3 µM); MIC (S. aureus Mu50; Staphylococcus aureus, MRSA): 8 to 128 µg/mL (≈ 22.1 to 354 µM); MIC [13]: 0.25 µg/mL (≈ 0.692 µM); MIC [14]: > 128 µg/mL; MIC ([15]; read-out: MIC): 0.25 µg/mL (≈ 0.692 µM); MIC [16]: 128 µg/mL (≈ 354 µM); MIC [17]: > 128 µg/mL |
| C[C@@H]1CN(c2c(F)c(N)c3c(=O)c(C(=O)O)cn(C4CC4)c3c2F)C[C@H](C)N1 [SPX, sparfloxacin] | ≤ 0.06 µg/mL | ≧256 | 8 µg/mL (≈ 20.4 µM) | < 0.06 µg/mL | < 0.06 µg/mL | 16 µg/mL (≈ 40.8 µM) | 16 µg/mL (≈ 40.8 µM) | < 0.06 µg/mL | 8 µg/mL (≈ 20.4 µM) | 128 µg/mL (≈ 326 µM) | 0.25 µg/mL (≈ 0.637 µM) | 0.5 µg/mL (≈ 1.27 µM) | 0.5 µg/mL (≈ 1.27 µM) | > 128 µg/mL | 0.25 µg/mL (≈ 0.637 µM) | ≤ 0.06 µg/mL | 32 µg/mL (≈ 81.5 µM) | 16 µg/mL (≈ 40.8 µM) | 8 µg/mL (≈ 20.4 µM) | 8 µg/mL (≈ 20.4 µM) | MIC (S. aureus Mu50): 16 µg/mL (≈ 40.8 µM); MIC (S. aureus Mu50; Staphylococcus aureus, MRSA): 8 to 128 µg/mL (≈ 20.4 to 326 µM); MIC [13]: ≤ 0.06 µg/mL; MIC [14]: 128 µg/mL (≈ 326 µM); MIC [15]: 0.125 µg/mL (≈ 0.319 µM); MIC [16]: 32 µg/mL (≈ 81.5 µM); MIC [17]: 128 µg/mL (≈ 326 µM) |
| NC1CCN(c2nc3c(cc2F)c(=O)c(C(=O)O)cn3-c2ccc(F)cc2F)C1 (centres unmarked) [TSX, tosufloxacin] | ≤ 0.06 µg/mL | ≧2048 | 2 µg/mL (≈ 4.95 µM) | 0.25 µg/mL (≈ 0.618 µM) | < 0.06 µg/mL | 8 µg/mL (≈ 19.8 µM) | > 128 µg/mL | 0.25 µg/mL (≈ 0.618 µM) | 8 µg/mL (≈ 19.8 µM) | > 128 µg/mL | 0.5 µg/mL (≈ 1.24 µM) | 2 µg/mL (≈ 4.95 µM) | 0.25 µg/mL (≈ 0.618 µM) | > 128 µg/mL | 0.25 µg/mL (≈ 0.618 µM) | ≤ 0.06 µg/mL | 32 µg/mL (≈ 79.1 µM) | > 128 µg/mL | 4 µg/mL (≈ 9.89 µM) | 16 µg/mL (≈ 39.6 µM) | MIC [13]: ≤ 0.06 µg/mL; MIC [14]: > 128 µg/mL; MIC ([15]; read-out: MIC): ≤ 0.06 µg/mL; MIC [16]: 16 µg/mL (≈ 39.6 µM); MIC [17]: > 128 µg/mL |
